Reference: US20090264384A1, “INDOLE, BENZIMIDAZOLE, AND BENZOLACTAM BORONIC ACID COMPOUNDS, ANALOGS THEREOF AND METHODS OF USE THEREOF” (Nuada, Inc., priority 2004, published 2009)
“And” between values parts separate entries of the source, which are not always exact repeats. Identical values can stand only once.

Key:
TNF-α production by PMBC = assay: Inhibition of TNF-α Production By Peripheral Blood Monocyte Cells (PMBC), LPS stimulated; type: cell-based; settings: 1 ug/mL LPS, 24 hours
Method: PMBC in RPMI 1640 Cell Culture Medium (containing 1% Penicillin and 1% Streptomycin) are aliquoted into 96-well plates at 5×10^5 cells/well and pre-incubated with test compounds for 30 minutes at 37° C. After incubation, 1 ug/mL LPS is added to each well to stimulate TNF-α production and the plate is incubated for 24 hours at 37° C. After incubation, the supernatant is removed and the TNF-α secreted is quantified using EIA detection kits commercially available from R&D Systems (USA). The results from this assay are expressed as percent inhibition of control activity, with the control being stimulated wells with no test compound. Dexamethasone is used as a standard reference compound in the assay and is tested with each experiment. All test compounds are diluted from 10 mM stock solutions in 100% DMSO.

phosphodiesterase [1] = molecular target: T1, phosphodiesterase (Homo sapiens, UniProt O76074); assay: In vitro phosphodiesterase enzyme assays of Example 39 (IC50 determination); type: biochemical
T1 construct: IC50; other: Phosphodiesterase 5 (h); nH; other: Hill coefficient, Phosphodiesterase 5 (h)
Method: (§1) The in vitro pharmacology of 5-(2-(4-Methoxyphenyl)-1H-benzo[d]imidazol-1-yl)pentylboronic acid was determined with several enzymes as described in Table 19 using the experimental conditions of Table 18.
(§2) Results. The corresponding inhibition curves were also determined (data not shown). Each is within accepted limits of the historic average ±0.5 log units. Table 21 contains the mean experimental values for the […] as performed as described above.

phosphodiesterase [2] = molecular target: T2, phosphodiesterase (Homo sapiens, UniProt O00408); assay: as above; type: biochemical
T2 construct: IC50; other: Phosphodiesterase 2 (h); nH; other: Hill coefficient, Phosphodiesterase 2 (h)
T2 sequence (O00408 whole entry): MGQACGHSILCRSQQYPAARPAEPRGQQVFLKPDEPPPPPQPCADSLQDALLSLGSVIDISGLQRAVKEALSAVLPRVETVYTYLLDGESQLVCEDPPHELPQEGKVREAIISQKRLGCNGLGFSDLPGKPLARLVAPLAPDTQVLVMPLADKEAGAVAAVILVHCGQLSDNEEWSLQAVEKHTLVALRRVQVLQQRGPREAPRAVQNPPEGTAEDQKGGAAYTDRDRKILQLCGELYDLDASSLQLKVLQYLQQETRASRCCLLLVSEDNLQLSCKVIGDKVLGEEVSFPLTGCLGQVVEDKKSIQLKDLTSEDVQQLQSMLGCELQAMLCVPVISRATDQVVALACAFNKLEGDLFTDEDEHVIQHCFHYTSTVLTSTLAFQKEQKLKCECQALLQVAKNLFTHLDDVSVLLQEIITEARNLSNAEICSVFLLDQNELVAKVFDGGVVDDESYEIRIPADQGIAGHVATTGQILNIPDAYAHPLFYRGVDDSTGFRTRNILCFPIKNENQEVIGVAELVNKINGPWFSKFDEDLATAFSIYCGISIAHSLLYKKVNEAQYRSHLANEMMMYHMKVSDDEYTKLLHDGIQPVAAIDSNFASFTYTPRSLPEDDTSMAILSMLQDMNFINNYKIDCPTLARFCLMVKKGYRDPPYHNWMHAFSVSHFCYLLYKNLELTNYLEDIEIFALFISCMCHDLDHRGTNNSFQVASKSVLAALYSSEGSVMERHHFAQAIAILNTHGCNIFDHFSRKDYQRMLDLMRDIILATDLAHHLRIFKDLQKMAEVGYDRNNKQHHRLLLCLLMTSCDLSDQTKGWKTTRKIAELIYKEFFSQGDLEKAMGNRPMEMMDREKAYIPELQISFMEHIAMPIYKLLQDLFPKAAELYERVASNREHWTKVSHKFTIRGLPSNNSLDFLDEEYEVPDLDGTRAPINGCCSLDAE
Method: as §1, §2

phosphodiesterase [3] = molecular target: T3, phosphodiesterase (Bos taurus, UniProt P11541+P23439); assay: as above; type: biochemical; settings: Hill coefficient, Phosphodiesterase 6
T3 construct: IC50; other: Phosphodiesterase 6 (bovine retina); nH; other: Hill coefficient, Phosphodiesterase 6
T3 sequence (P11541 2-856): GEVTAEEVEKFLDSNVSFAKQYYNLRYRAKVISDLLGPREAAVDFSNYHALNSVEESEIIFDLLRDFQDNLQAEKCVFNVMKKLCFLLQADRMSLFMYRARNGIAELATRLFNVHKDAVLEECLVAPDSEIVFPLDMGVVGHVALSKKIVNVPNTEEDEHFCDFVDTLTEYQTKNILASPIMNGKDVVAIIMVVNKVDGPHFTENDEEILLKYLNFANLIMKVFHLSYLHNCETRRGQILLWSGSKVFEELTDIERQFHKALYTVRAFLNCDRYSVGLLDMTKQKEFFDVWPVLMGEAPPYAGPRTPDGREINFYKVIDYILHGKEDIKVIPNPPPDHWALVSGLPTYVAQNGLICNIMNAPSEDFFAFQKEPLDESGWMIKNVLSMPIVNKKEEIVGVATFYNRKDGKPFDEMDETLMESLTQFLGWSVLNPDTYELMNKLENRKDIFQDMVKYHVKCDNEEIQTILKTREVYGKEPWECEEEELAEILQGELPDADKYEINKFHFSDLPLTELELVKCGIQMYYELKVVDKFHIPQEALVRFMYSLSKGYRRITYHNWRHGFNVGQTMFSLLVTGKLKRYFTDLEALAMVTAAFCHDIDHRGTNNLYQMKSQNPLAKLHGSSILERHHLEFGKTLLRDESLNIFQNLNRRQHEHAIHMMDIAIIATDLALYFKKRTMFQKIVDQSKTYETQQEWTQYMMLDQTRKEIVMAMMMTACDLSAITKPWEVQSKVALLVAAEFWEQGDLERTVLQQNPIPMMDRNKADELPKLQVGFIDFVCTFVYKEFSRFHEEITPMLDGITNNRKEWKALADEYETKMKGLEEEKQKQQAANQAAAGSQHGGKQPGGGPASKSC
T3 sequence (P23439 2-850): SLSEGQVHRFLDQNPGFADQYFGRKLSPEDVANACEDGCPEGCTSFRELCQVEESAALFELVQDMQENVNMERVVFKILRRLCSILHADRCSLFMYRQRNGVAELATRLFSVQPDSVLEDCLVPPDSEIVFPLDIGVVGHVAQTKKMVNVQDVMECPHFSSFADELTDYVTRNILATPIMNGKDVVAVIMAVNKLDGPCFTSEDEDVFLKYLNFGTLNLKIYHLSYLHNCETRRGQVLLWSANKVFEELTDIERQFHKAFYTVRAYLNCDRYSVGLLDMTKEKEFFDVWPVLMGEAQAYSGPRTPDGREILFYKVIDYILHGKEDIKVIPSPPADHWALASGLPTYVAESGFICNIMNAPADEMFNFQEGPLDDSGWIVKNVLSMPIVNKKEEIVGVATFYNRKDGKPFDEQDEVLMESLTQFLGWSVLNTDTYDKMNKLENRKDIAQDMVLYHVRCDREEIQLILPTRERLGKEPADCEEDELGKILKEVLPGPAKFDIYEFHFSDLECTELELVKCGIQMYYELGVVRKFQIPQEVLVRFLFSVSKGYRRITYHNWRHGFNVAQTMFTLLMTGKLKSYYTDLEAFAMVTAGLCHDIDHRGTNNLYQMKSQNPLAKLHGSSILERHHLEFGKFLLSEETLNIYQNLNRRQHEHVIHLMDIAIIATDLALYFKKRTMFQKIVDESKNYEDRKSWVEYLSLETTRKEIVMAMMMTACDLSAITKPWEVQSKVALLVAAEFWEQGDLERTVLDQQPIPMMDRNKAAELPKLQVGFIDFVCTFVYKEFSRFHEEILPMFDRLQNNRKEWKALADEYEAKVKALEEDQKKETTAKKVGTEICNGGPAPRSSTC
T3 sequence (P04972 whole entry partner): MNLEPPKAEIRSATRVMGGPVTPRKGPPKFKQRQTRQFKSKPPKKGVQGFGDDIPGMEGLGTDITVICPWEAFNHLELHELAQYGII
Method: as §1, §2

phosphodiesterase [4] = molecular target: T4, phosphodiesterase; assay: as above; type: biochemical; settings: Phosphodiesterase 4 (h)
T4 construct: IC50; other: Phosphodiesterase 4 (h); nH; other: Hill coefficient, Phosphodiesterase 4 (h)
Method: as §1, §2

HERG channel = HERG channel (Homo sapiens, UniProt Q12809); assay: ADME-Tox: QT Prolongation, HERG (patch-clamp)
Chain of HERG channel (Q12809 whole entry): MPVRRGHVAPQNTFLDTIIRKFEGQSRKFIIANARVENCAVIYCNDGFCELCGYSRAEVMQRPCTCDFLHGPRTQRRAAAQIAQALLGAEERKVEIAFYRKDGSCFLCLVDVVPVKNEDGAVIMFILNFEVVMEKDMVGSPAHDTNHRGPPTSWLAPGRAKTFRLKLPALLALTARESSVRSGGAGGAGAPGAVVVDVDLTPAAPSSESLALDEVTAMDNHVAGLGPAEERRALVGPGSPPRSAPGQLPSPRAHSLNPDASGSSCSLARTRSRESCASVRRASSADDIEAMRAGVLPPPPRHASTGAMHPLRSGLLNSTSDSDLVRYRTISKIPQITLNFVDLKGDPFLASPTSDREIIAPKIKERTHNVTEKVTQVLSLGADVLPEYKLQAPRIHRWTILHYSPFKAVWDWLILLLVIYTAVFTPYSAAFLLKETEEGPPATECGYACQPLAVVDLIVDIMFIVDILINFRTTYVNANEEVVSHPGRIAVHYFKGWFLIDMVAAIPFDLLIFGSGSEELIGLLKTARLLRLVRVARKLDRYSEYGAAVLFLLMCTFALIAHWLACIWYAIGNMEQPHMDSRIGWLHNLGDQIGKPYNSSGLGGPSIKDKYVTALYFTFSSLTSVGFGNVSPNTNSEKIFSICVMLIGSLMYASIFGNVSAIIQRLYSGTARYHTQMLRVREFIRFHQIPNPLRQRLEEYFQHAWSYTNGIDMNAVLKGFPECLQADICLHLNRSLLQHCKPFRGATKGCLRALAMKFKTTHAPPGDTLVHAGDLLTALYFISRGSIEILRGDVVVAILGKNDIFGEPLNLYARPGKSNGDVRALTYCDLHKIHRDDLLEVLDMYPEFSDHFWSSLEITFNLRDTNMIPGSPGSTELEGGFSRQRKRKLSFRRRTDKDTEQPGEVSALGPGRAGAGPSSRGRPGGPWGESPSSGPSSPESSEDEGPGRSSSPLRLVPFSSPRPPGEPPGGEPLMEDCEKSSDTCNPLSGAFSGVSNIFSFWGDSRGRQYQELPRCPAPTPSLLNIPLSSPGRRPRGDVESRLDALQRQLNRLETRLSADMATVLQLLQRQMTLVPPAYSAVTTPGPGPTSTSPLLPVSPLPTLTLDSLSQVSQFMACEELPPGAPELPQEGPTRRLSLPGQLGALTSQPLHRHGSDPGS

hERG = hERG (Homo sapiens, UniProt Q12809); assay: ADME-Tox: QT Prolongation, HERG (patch-clamp); settings: human, HEK-293 cells stably expressing HERG
Chain of hERG (Q12809 whole entry): as above

[5] = Solubility when preparing the topical solution; type: physicochemical
Method: (§3) An aliquot of a representative presently disclosed compound was stored in an amber glass vial and stored at 25° C. […] 0.1 mL of this solution was diluted into 0.9 mL 190 proof alcohol to prepare a 0.5% solution.

[6] = test system: arachidonic acid-induced ear edema; assay: Arachidonic acid-induced mouse ear edema model; type: in vivo; settings: for inhibition of the irritant-induced ear edema: thirty minutes prior to arachidonic acid challenge; for Change in Ear Weight (mg) Average / % Inhibition / Ear Weight (mg) Left (−AA) / Ear Weight (mg) Right (+AA): topical; for % Inhibition: change in ear weight vs vehicle; for Ear Weight (mg) Left (−AA) / Ear Weight (mg) Right (+AA): individual mice
Method: This example was carried out in male BALB/c mice. 42 BALB/c mice (Harlan Sprague-Dawley, Inc., male, PO # 452036, R #2449, 5-6 weeks) were received, individually examined, and housed in four cages of ten mice each and one cage containing two mice. Each animal was in apparent good health: no clinical signs of disease or distress. The animals were placed in quarantine with daily inspections.
as §3
30 mg indomethacin (Sigma Cat. I-7378, lot 60K0745) was dissolved in 5 ml 0.1 M NaHCO3 to prepare a 6 mg/mL solution.
48.9 μL arachidonic acid (Sigma Cat. A-9673. lot 057K1620) was dissolved in 450 μL 190 proof alcohol to prepare a 100 mg/mL solution.
The mice were numbered and weighed. The mice in Groups 1, 3, 4 were topically treated on both sides of both ears with either 25 μL 190 proof alcohol, 5% 5-(2-(4-Methoxyphenyl)-1H-benzo[d]imidazol-1-yl)pentylboronic acid, or 0.5% 5-(2-(4-Methoxyphenyl)-1H-benzo[d]imidazol-1-yl)pentylboronic acid. The mice in Group 2 were injected intraperitoneally with 5 mL/kg indomethacin (30 mg/kg). Thirty minutes after 190 proof alcohol, indomethacin, or 5-(2-(4-Methoxyphenyl)-1H-benzo[d]imidazol-1-yl)pentylboronic acid application/administration, 5 μL of the arachidonic acid solution was applied to the dorsal and ventral sides of the right ear. The contralateral ear was treated with 190 proof alcohol. One hour after alcohol/arachidonic acid application, the mice were euthanized, the ears removed and the ear weights recorded.
Significance (p-value) was calculated using Student's T-test. The effect of prophylactic topical treatment with a representative presently disclosed compound on arachidonic acid-induced murine ear edema is shown in FIG. 16.

Q: Which IC50 (TNF-α production by PMBC) does the source give for `COc1ccc(-c2nc3ccccc3n2CCCCCB(O)O)cc1` [Example 7, 5-(2-(4-Methoxyphenyl)-1H-benzo[d]imidazol-1-yl)pentylboronic acid] here?
A: 200 nM

Q: What about the nH (phosphodiesterase [1]; Hill coefficient, Phosphodiesterase 5(h)) of the same molecule?
A: 0.7

Q: And the IC50 (phosphodiesterase [1]; Phosphodiesterase 5 (h))?
A: 960 nM

Q: And the nH (phosphodiesterase [2]; Hill coefficient, Phosphodiesterase 2(h))?
A: 0.8

Q: What about the IC50 (phosphodiesterase [2]; Phosphodiesterase 2 (h)) of the same molecule?
A: 110 nM

Q: What about the nH (phosphodiesterase [3]) of the same molecule?
A: 0.9

Q: What about the IC50 (phosphodiesterase [4]) of the same molecule?
A: 420 nM

Q: What about the “Potency Ranking” value (HERG channel; HERG-channel blocker ranking, from 1 μM test (Table 21)) of the same molecule?
A: Moderate/High

Q: And the “HERG-channel blocker potency class” value (HERG channel; general potency ranking system (Roche et al.))?
A: moderate/high

Q: What about the inhibition at 1 µM (hERG) of the same molecule?
A: 49.7%

Q: And the solubility in acetone [5]?
A: not soluble in acetone

Q: And the “inhibition of the irritant-induced ear edema” value ([6]; 0.5% solution topical)?
A: 12%

Q: And the “Change in Ear Weight (mg) Average” value ([6]; 0.5%)?
A: 44.1 mg

Q: And the “inhibition of the irritant-induced ear edema” value ([6]; 5% solution topical)?
A: 46%

Q: And the “Change in Ear Weight (mg) Average” value ([6]; 5%)?
A: 26.9 mg

Q: And the “% Inhibition” value ([6]; 0.5%)?
A: 12.2%

Q: What about the “% Inhibition” value ([6]; 5%) of the same molecule?
A: 46.4%

Q: What about the “Ear Weight (mg) Left (−AA)” value ([6]; 0.5%) of the same molecule?
A: 22 mg (2×) and 20 mg (4×) and 34 mg and 23 mg and 24 mg and 21 mg

Q: And the “Ear Weight (mg) Right (+AA)” value ([6]; 0.5%)?
A: 76 mg and 63 mg and 55 mg and 82 mg and 78 mg and 50 mg and 62 mg and 77 mg and 60 mg and 64 mg

Q: And the “Ear Weight (mg) Left (−AA)” value ([6]; 5%)?
A: 23 mg (3×) and 24 mg (2×) and 22 mg (3×) and 20 mg and 21 mg

Q: What about the “Ear Weight (mg) Right (+AA)” value ([6]; 5%) of the same molecule?
A: 50 mg and 48 mg and 57 mg and 42 mg and 55 mg and 51 mg and 53 mg and 49 mg and 44 mg (2×)
